Assay results published in US8080529B2, “Macrolides with anti-inflammatory activity” (Glaxo Group Limited, priority 2005, dated 2011).
Where two headings read alike, the source gives them in different places.

Tests used:
Format in all cases: cell-based
TNF-α = test: Inhibition of TNF-α production by stimulated human peripheral blood leukocytes in vitro; settings: for inhibition at 10 µM / inhibition at 50 µM: Homo sapiens, Leukocyte, read-out: Percentage of inhibition of TNF-α production
Method: (§1) Test substances used in in vitro experiments were dissolved in dimethyl sulfoxide (DMSO) (Kemika, Croatia) at concentrations of 50 mM and 10 mM, and were further diluted to final concentrations of 50 μM and 10 μM in 1 mL Dulbecco's modified Eagle medium (DMEM) supplemented with 1% heat inactivated fetal bovine serum (FBS), 1% L-glutamine, 50 U/ml penicillin, 50 μg/ml streptomycin and 2.5 μg/mL Fungizone (amphotericin B). Media and all media supplements were purchased from Gibco, Australia, except the FBS was purchased from Sigma, USA.
(§2) Peripheral blood leukocytes (PBL) were obtained from venous blood of healthy volunteers by sedimentation on 2% dextran T-500 (Amersham Biosciences, USA) and subsequent centrifugations of leukocyte rich plasma.
(§3) Peripheral blood leukocytes (PBL), isolated as described above, were seeded in a 48-well plate at a concentration of 3 to 5×10^6 cell per well in culture medium consisting of RPMI 1640 medium (Institute of Immunology, Croatia) supplemented with 10% heat-inactivated fetal calf serum (FCS, Biowhittaker, USA), 100 U/ml penicillin (Gibco, Australia), 100 μg/ml streptomycin (Gibco, Australia) and 2 mM L-glutamine (Gibco, Australia), and preincubated with the test compounds for 2 h at 37° C., in an atmosphere of 5% CO2, and 90% humidity. Then, stimuli (Sigma, USA) were added to a final concentration of 2 μg/mL lipopolysaccharide (LPS), 1 μg/mL phorbol 12-myristate 13-acetate (PMA) or 120 μg/mL zymosan. Samples were incubated overnight under conditions described above. At the end of incubation, the supernatants were transferred to eppendorf tubes and centrifuged for 10 min at 1500×g. Concentrations of human TNF-α, IL-1β, IL-6 and IL-8 were determined in cell supernatants by sandwich ELISA, using capture and detection antibodies (R&D Systems, Minneapolis, Minn.) according to the manufacturer's recommendations.
(§4) Inhibition (as percentage) was calculated using the following formula: % inhibition=(1−concentration of cytokines in sample/concentration of cytokines in positive control)×100.
(§5) The positive control refers to LPS-, PMA- or zymosan-stimulated samples that were not preincubated with test compounds.

IL-1α = test: Inhibition of IL-1 production by stimulated human peripheral blood leukocytes in vitro; settings: for inhibition at 10 µM / inhibition at 50 µM: Homo sapiens, Leukocyte, read-out: Percentage of inhibition of IL-1α production
IL-6 = test: Inhibition of IL-6 production by stimulated human peripheral blood leukocytes in vitro; settings: for inhibition at 10 µM / inhibition at 50 µM: Homo sapiens, Leukocyte, read-out: Percentage of inhibition of IL-6 production
Method: as §1, §2, §3, §4, §5

IL-8 = test: Inhibition of IL-8 production by stimulated human peripheral blood leukocytes in vitro; settings: for inhibition at 10 µM / inhibition at 50 µM: Homo sapiens, Leukocyte, read-out: Percentage of inhibition of IL-8 production
Method: as §1, §2, §3, §4, §5

CCC(=O)N(C)[C@H]1C[C@@H](C)O[C@@H](O[C@@H]2[C@@H](C)[C@H](O[C@H]3C[C@@](C)(OC)[C@@H](OC(=O)CCN(CC)CC)[C@H](C)O3)[C@@H](C)C(=O)O[C@H](CC)[C@@](C)(O)[C@H](O)[C@@H](C)NC(=O)[C@H](C)C[C@@]2(C)OC)[C@@H]1O [Example 63, 3′-N-methyl-3′-N-propionyl-4″-O-(3-diethylaminopropionyl)-6-O-methyl-9a-aza-9a-homoerythromycin A]
Percentage of inhibition of TNF-α production (TNF-α; 10 μM, LPS-stimulated PBL): 0% | Percentage of inhibition of TNF-α production (TNF-α; 10 μM, PMA-stimulated PBL): 21% | Percentage of inhibition of TNF-α production (TNF-α; 10 μM, zymosan-stimulated PBL): 0% | Percentage of inhibition of TNF-α production (TNF-α; 50 μM, LPS-stimulated PBL): 69% | Percentage of inhibition of TNF-α production (TNF-α; 50 μM, PMA-stimulated PBL): 73% | Percentage of inhibition of TNF-α production (TNF-α; 50 μM, zymosan-stimulated PBL): 87% | Percentage of inhibition of IL-1α production (IL-1α; 10 μM, LPS-stimulated PBL): 59% | Percentage of inhibition of IL-1α production (IL-1α; 10 μM, PMA-stimulated PBL): 52% | Percentage of inhibition of IL-1α production (IL-1α; 10 μM, zymosan-stimulated PBL): 45% | Percentage of inhibition of IL-1α production (IL-1α; 50 μM, LPS-stimulated PBL): 89% | Percentage of inhibition of IL-1α production (IL-1α; 50 μM, PMA-stimulated PBL): 81% | Percentage of inhibition of IL-1α production (IL-1α; 50 μM, zymosan-stimulated PBL): 100% | Percentage of inhibition of IL-6 production (IL-6; 10 μM, LPS-stimulated PBL): 8% | Percentage of inhibition of IL-6 production (IL-6; 10 μM, PMA-stimulated PBL): 24% | Percentage of inhibition of IL-6 production (IL-6; 10 μM, zymosan-stimulated PBL): 0% | Percentage of inhibition of IL-6 production (IL-6; 50 μM, LPS-stimulated PBL): 60% | Percentage of inhibition of IL-6 production (IL-6; 50 μM, PMA-stimulated PBL): 62% | Percentage of inhibition of IL-6 production (IL-6; 50 μM, zymosan-stimulated PBL): 90% | Percentage of inhibition of IL-8 production (IL-8; 10 μM, LPS-stimulated PBL): 0% | Percentage of inhibition of IL-8 production (IL-8; 10 μM, PMA-stimulated PBL): 0% | Percentage of inhibition of IL-8 production (IL-8; 10 μM, zymosan-stimulated PBL): 0% | Percentage of inhibition of IL-8 production (IL-8; 50 μM, LPS-stimulated PBL): 36% | Percentage of inhibition of IL-8 production (IL-8; 50 μM, PMA-stimulated PBL): 3% | Percentage of inhibition of IL-8 production (IL-8; 50 μM, zymosan-stimulated PBL): 44%

CC[C@H]1OC(=O)[C@H](C)[C@@H](O[C@H]2C[C@@](C)(OC)C(OC(=O)CCN(CC)CC)[C@H](C)O2)[C@H](C)[C@@H](O[C@@H]2O[C@H](C)C[C@H](NC)[C@H]2O)[C@](C)(O)C[C@@H](C)CN(C)[C@H](C)[C@@H](O)[C@]1(C)O (stereo partly drawn) [Example 90, 3′-N-Demethyl-4″-O-(3-diethylaminopropionyl)-azithromycin]
inhibition at 10 µM (TNF-α; 10 μM, LPS-stimulated PBL): 78% | inhibition at 10 µM (TNF-α; 10 μM, PMA-stimulated PBL): 40% | inhibition at 10 µM (TNF-α; 10 μM, zymosan-stimulated PBL): 53% | inhibition at 50 µM (TNF-α; 50 μM, LPS-stimulated PBL): 100% | inhibition at 50 µM (TNF-α; 50 μM, PMA-stimulated PBL): 95% | inhibition at 50 µM (TNF-α; 50 μM, zymosan-stimulated PBL): 94% | inhibition at 10 µM (IL-1α; 10 μM, LPS-stimulated PBL): 62% | inhibition at 10 µM (IL-1α; 10 μM, PMA-stimulated PBL): 61% | inhibition at 10 µM (IL-1α; 10 μM, zymosan-stimulated PBL): 82% | inhibition at 50 µM (IL-1α; 50 μM, LPS-stimulated PBL): 91% | inhibition at 50 µM (IL-1α; 50 μM, PMA-stimulated PBL): 57% | inhibition at 50 µM (IL-1α; 50 μM, zymosan-stimulated PBL): 100% | inhibition at 10 µM (IL-6; 10 μM, LPS-stimulated PBL): 67% | inhibition at 10 µM (IL-6; 10 μM, PMA-stimulated PBL): 46% | inhibition at 10 µM (IL-6; 10 μM, zymosan-stimulated PBL): 60% | inhibition at 50 µM (IL-6; 50 μM, LPS-stimulated PBL): 88% | inhibition at 50 µM (IL-6; 50 μM, PMA-stimulated PBL): 90% | inhibition at 50 µM (IL-6; 50 μM, zymosan-stimulated PBL): 100% | inhibition at 10 µM (IL-8; 10 μM, LPS-stimulated PBL): 4% | inhibition at 10 µM (IL-8; 10 μM, PMA-stimulated PBL): 0% | inhibition at 10 µM (IL-8; 10 μM, zymosan-stimulated PBL): 24% | inhibition at 50 µM (IL-8; 50 μM, LPS-stimulated PBL): 38% | inhibition at 50 µM (IL-8; 50 μM, PMA-stimulated PBL): 53% | inhibition at 50 µM (IL-8; 50 μM, zymosan-stimulated PBL): 88%
